These results are taken from ChEMBL document CHEMBL3351506, “Synthesis and antiproliferative activity of conjugates of adenosine with muramyl dipeptide and nor-muramyl dipeptide derivatives” (Bioorg Med Chem Lett, 2014).

Assay [1] relates to L1210. Nature of the assay: Cytotoxicity against mouse L1210 cells assessed as inhibition of cell viability after 72 hrs by MTT assay relative to control. It is filed as functional. Further details: concentration or dose not given beside the values. As to conditions: values are per cent of control.
Assay [2] has as its system L1210. Briefly: Antitumor activity against mouse L1210 cells assessed as inhibition of [3H]thymidine incorporation at 0.5 mg/ml after 72 hrs relative to control. It is filed as functional. As to conditions: values are per cent of control. (Dividing cells build labelled thymidine or BrdU into new DNA.)
Assay [3] has as its system L1210. Nature of the assay: Cytotoxicity against mouse L1210 cells assessed as inhibition of cell viability after 72 hrs by MTT assay. The assay is classed as functional, cell-based. As to conditions: L1210, 72 h.
The subject of another assay is PBMC. Nature of the assay: Cytotoxicity against human PBMC assessed as inhibition of cell viability after 72 hrs by MTT assay. It is filed as cell-based. A general note: Tetrazolium dyes change colour on reduction, which living cells bring about.
For assay [4], the system named is L1210. Nature of the assay: Antitumor activity against mouse L1210 cells assessed as inhibition of [3H]thymidine incorporation after 72 hrs. It is filed as functional, cell-based.
For assay [5], the system named is L1210. Briefly: Ratio of IC50 for mouse L1210 cells by MTT assay to EC50 for mouse L1210 cells by [3H]thymidine incorporation assay. It is filed as functional.

As to `CC(=O)N[C@H]1[C@@H](OCc2ccccc2)O[C@H](CO)[C@@H](O)[C@@H]1OCC(=O)N[C@H](C)C(=O)N[C@H](CCC(=O)O)C(N)=O`, the “viability, % of control” value in the assay on L1210 [1] is reported as 19.97%. Also, the growth, % of control at 500 µg/mL in the assay with L1210 [2] was 0.55%. The half-maximal inhibitory concentration (IC50) in the assay on L1210 [3] amounted to 287 µM; with PBMC, 335 µM. Moreover, the EC50 with L1210 [4] amounted to 363 µM. Moreover, the “Ratio IC50/EC50” value in the assay on L1210 [5] is on record as 36.6.

Take `CC(=O)N[C@H]1[C@@H](OCc2ccccc2)O[C@H](CO)[C@@H](O)[C@@H]1O[C@H](C)C(=O)N[C@H](C)C(=O)N[C@H](CCC(=O)NCCNc1ncnc2c1ncn2[C@@H]1O[C@H](CO)[C@@H](O)[C@H]1O)C(N)=O`: the “viability, % of control” value in the assay on L1210 [1] stood at 35.91%. In addition, the growth, % of control at 500 µg/mL in the assay on L1210 [2] turned out to be 9.75%. In addition, the concentration for half-maximal inhibition (IC50) with L1210 [3] turned out to be 287 µM; in the assay on PBMC it was 389 µM. Further, the EC50 in the assay on L1210 [4] turned out to be 517 µM. Besides, in the assay with L1210 [5], the “Ratio IC50/EC50” value stood at 3.7.

On to `CC[C@@H](NC(=O)[C@@H](C)O[C@H]1[C@H](O)[C@@H](CO)O[C@H](OCc2ccccc2)[C@@H]1NC(C)=O)C(=O)N[C@H](CCC(=O)NCCNc1ncnc2c1ncn2[C@@H]1O[C@H](CO)[C@@H](O)[C@H]1O)C(N)=O`, for which, in the assay with L1210 [1], the “viability, % of control” value was 29.01%. In addition, the growth, % of control at 500 µg/mL with L1210 [2] was found to be 0.86%. Besides, the values for the IC50 in the assay with L1210 [3] and with PBMC were 220 µM and 439 µM, respectively. In addition, the EC50 in the assay on L1210 [4] worked out at 446 µM. Also, the “Ratio IC50/EC50” value in the assay on L1210 [5] was 33.8.

For the molecule `CC(=O)N[C@H]1[C@@H](OCc2ccccc2)O[C@H](CO)[C@@H](O)[C@@H]1O[C@H](C)C(=O)N1CCC[C@@H]1C(=O)N[C@H](CCC(=O)NCCNc1ncnc2c1ncn2[C@@H]1O[C@H](CO)[C@@H](O)[C@H]1O)C(N)=O`, the “viability, % of control” value in the assay with L1210 [1] is listed as 43.1%. The growth, % of control at 500 µg/mL in the assay on L1210 [2] was determined as 4.65%. Also, the IC50 worked out at 311 µM with L1210 [3] and 271 µM in the assay with PBMC. For the same molecule, the EC50 with L1210 [4] came to 507 µM. The “Ratio IC50/EC50” value in the assay on L1210 [5] is listed as 9.3.

On to `CC(=O)N[C@H]1[C@@H](OCc2ccccc2)O[C@H](CO)[C@@H](O)[C@@H]1O[C@H](C)C(=O)N[C@H](CO)C(=O)N[C@H](CCC(=O)NCCNc1ncnc2c1ncn2[C@@H]1O[C@H](CO)[C@@H](O)[C@H]1O)C(N)=O`, for which the “viability, % of control” value in the assay with L1210 [1] is recorded as 28.09%. The growth, % of control at 500 µg/mL with L1210 [2] turned out to be 5.14%. Besides, the IC50 in the assay on L1210 [3] was 218 µM; in the assay on PBMC, 324 µM. In the assay on L1210 [4], the EC50 turned out to be 497 µM. Also, the “Ratio IC50/EC50” value in the assay on L1210 [5] turned out to be 5.5.

For the molecule `CC(=O)N[C@H]1[C@@H](OCc2ccccc2)O[C@H](CO)[C@@H](O)[C@@H]1O[C@H](C)C(=O)N[C@@H](C(=O)N[C@H](CCC(=O)NCCNc1ncnc2c1ncn2[C@@H]1O[C@H](CO)[C@@H](O)[C@H]1O)C(N)=O)C(C)C`, in the assay on L1210 [1], the “viability, % of control” value is on record as -0.87%. Besides, in the assay on L1210 [2], the growth, % of control at 500 µg/mL came out at 2.9%. For the same molecule, the figures for the IC50 in the assay with L1210 [3] and with PBMC were 161 µM and 234 µM, respectively. Also, the EC50 in the assay with L1210 [4] is 458 µM. In the assay on L1210 [5], the “Ratio IC50/EC50” value was -0.3.

Consider `CC(=O)N[C@H]1[C@@H](OCc2ccccc2)O[C@H](CO)[C@@H](O)[C@@H]1OCC(=O)N[C@H](C)C(=O)N[C@H](CCC(=O)NCCNc1ncnc2c1ncn2[C@@H]1O[C@H](CO)[C@@H](O)[C@H]1O)C(N)=O`, for which, in the assay with L1210 [1], the “viability, % of control” value is on record as 29.84%. The growth, % of control at 500 µg/mL with L1210 [2] was found to be 0.67%. The IC50 in the assay with L1210 [3] was found to be 270 µM; in the assay with PBMC, 298 µM. Further, the EC50 with L1210 [4] came out at 500 µM. Also, in the assay on L1210 [5], the “Ratio IC50/EC50” value worked out at 44.7.

As to `CC(=O)N[C@H]1[C@@H](OCc2ccccc2)O[C@H](CO)[C@@H](O)[C@@H]1OCC(=O)N[C@H](CO)C(=O)N[C@H](CCC(=O)NCCNc1ncnc2c1ncn2[C@@H]1O[C@H](CO)[C@@H](O)[C@H]1O)C(N)=O`, the “viability, % of control” value in the assay with L1210 [1] was 64.95%. The growth, % of control at 500 µg/mL with L1210 [2] was determined as 31.6%. For the same molecule, the results for the IC50 in the assay on L1210 [3] and in the assay on PBMC were 570 µM and 479 µM, respectively. For the same molecule, the EC50 with L1210 [4] was 541 µM. The “Ratio IC50/EC50” value in the assay on L1210 [5] was 2.1.

In general, IC50 refers to the concentration at which inhibition is half-maximal. The EC50 is the concentration that produces a half-maximal response.
